In patent publication US10053666B2, “Medium for preparing a neural cell and usage thereof” (SHENZHEN CELL INSPIRE BIOTECHNOLOGY CO., LTD., priority 2014, dated 2018):

Legend:
WI38 = test: Conversion of fibroblast cell line to neural cell / iOPC in neural induction medium; assay type: cell-based, human; details: for conversion into neural cell: 10 μM in neural induction medium, WI38
Description: (§1) Using the same method with EXAMPLE 1, cultured fiber cell line IMR90 and WI38 with neural induction medium including 10 μM Y27632, Palomid 529, LY294002, PF562271 or rapamycin.
(§2) In contrast, after 4 weeks in the same induction medium without ROCK inhibitor, cells kept fibroblast morphology with negative staining of O4, A2B5, and S100β (data not shown). […] To confirm conversion of fibroblasts to iOPCs by ROCK inhibitor, additional two human primary fibroblast cell lines, IMR90 and WI38, were tested using the same fibroblast—OPC conversion conditions. Consistent with the results from adult dermal cells, inventors observed 60-80% of fibroblast—OPC conversion in these two cell lines (data not shown). Next, inventors assessed whether the iOPCs could differentiate into mature oligodendrocytes. After removing growth factors and addition of thyroid hormone (a known inducer of oligodendrocyte differentiation) in cell culture medium, about 70% of the iOPCs differentiated into cells with a multiprocessed morphology typical of oligodendrocytes within 3-7 days (FIG. 2b). The oligodendrocytes expressed myelin basic protein (MBP), an integral protein component of the myelin sheath, and other defining markers of mature oligodendrocytes, including myelin-associated glycoprotein and myelin oligodendrocyte glycoprotein (FIG. 2b). Thus, inventors concluded that ROCK inhibitor-induced iOPCs can be further differentiated into mature functional oligodendrocytes.

IMR90 = test: as above; assay type: cell-based, human; details: for conversion into neural cell: 10 μM in neural induction medium, IMR90
Description: as §1, §2

IMR90 fibroblasts = test: Direct conversion of fibroblasts to neurons and astrocytes; assay type: cell-based, human
Description: To assess the general application of ROCK inhibitor for direct conversion of different neural cells, inventors tweaked the protocol for induction of iOPCs and successfully converted fibroblasts to typical neurons and astrocytes. using the following procedure:
at Day 1, coat tissue culture 24-well plate with 0.1 mg/ml Poly-L-ornithine solution (sigma, P4957) for at least 3 hours; wash wells 3 times with autoclaved MilliQ water, 5 mins each; add 500 ul/well of 2 μg/ml Fibronectin (sigma, F0556) and 10 μg/ml Laminin (ROCHE, 11243217001) solution in 1×PBS and place in incubator overnight to coat. At Day 2, aspirate the F/L solution from the well, wash with basic medium and plate fibroblast cells with basic medium at 2×10^4 cells per well. At Day 3, aspirate basic medium from the well, wash with PBS once, and feed cells with induction medium. From Day 6-10, when cells change their morphology into neural-like cells, culture cells with mature medium or OPC medium.

dermal fibroblasts = test: Immunostaining of OPC-specific biomarkers after 7-day induction; assay type: cell-based, human
Description: After 7-day induction with ROCK inhibitor treatment, cells were fixed and analyzed by immunostaining of the OPC-specific biomarker, O4. Immunofluorescence staining was performed as following steps:
Briefly, 5×10^4 modified human fibroblasts were planted on coated glass coverslips the day before induction. After induction, cells were fixed for 20 min at room temperature in 4% paraformaldehyde in PBS, permeabilized for 30 min in PBS containing 0.2% Triton X-100 and 10% normal goat serum (NGS), and incubated overnight at 4° C. in PBS containing 10% NGS and primary antibodies. Then cells were washed three times with PBS and incubated for 2 h at room temperature with anti-rabbit or anti-mouse secondary antibodies Alexa Fluor-488 or Alexa Fluor-594 (1:500, Invitrogen). The images were acquired by immunofluorescence microscope or Zeiss LSM 510 META confocal microscope with 40×, 1.3 numerical aperture oil-immersion objective.
The following antibodies were used for the immunofluorescence studies: mouse anti-04 (Millipore, 1:50), rabbit anti-NF (Sigma-Aldrich, 1:1000), mouse anti-A2B5 (Millipore, 1:50), MBP (1:100, Covance; 1:100, Abcam), MAG (Millipore, 1:50), MOG (Millipore, 1:50).

[1] = system: human adult dermal fibroblasts; test: Screening of protein kinase inhibitor library for fibroblast-OPC conversion; assay type: cell-based; details: with retinoic acid (RA), neural induction medium, quantified on day 7
Description: 1. Coated cell culture 24-well plate with 0.1 mg/ml Poly-L-ornithine solution (sigma, P4957) for at least 3 hours. Then washed wells 3 times with autoclaved MilliQ water, 5 mins per time.
2. Added 500 ul/well of […] Fibronectin (sigma, F0556) and […] Laminin (ROCHE, 11243217001) solution in 1×PBS and placed in incubator overnight to coat.
3. Aspirated the Fibronectin/Laminin solution from the wells, washed with culture medium.
4. Plated fibroblast cells with Basic Medium at 2×10^4 cells (human adult dermal fibroblasts, ATCC, PCS-201-012) per well, cultured overnight. The Basic Medium comprises: DMEM high glucose (HyClone, SH30022), 10% FBS (Fisher Scientific, SH3007003), 10 mM HEPES (CORNING 25060-CL), 1×MEM NEAA (100×) (GIBCO, 11140) (MEM Non-Essential Amino Acids Solution), 1 mM Na Pyruvate (GIBCO, 25000), 1×2-Mercaptoethanol (1000×) (GIBCO, 21985), 1× Glutamax (100×) (GIBCO, 35050), penicillin/streptomycin.
5. Aspirated Basic Medium from the wells.
7. Fed wells with Induction Medium. Changed medium every two days. […]

CN(c1ncccc1CNc1nc(Nc2ccc3c(c2)CC(=O)N3)ncc1C(F)(F)F)S(C)(=O)=O [PF562271]
conversion into neural cell (WI38): converted into neural cell | conversion into neural cell (IMR90): converted into neural cell

COc1ccc(COc2cc3oc(=O)c4cc(C(C)O)ccc4c3cc2OC)cc1 (stereo not shown) [Palomid 529]
conversion into neural cell (WI38): converted into neural cell | conversion into neural cell (IMR90): converted into neural cell

C[C@@H](N)[C@H]1CC[C@H](C(=O)Nc2ccncc2)CC1 [Y27632]
staining of astrocyte-specific biomarker GFAP in induced astrocytes (IMR90 fibroblasts; induced astrocytes): positive staining | staining of neuronal biomarkers Tuj and MAP2 in induced neuronal cells (IMR90 fibroblasts; induced neuronal cells (iNCs)): positive staining | conversion into neural cell (WI38): converted into neural cell | fibroblast-OPC conversion (WI38; WI38, same conversion conditions (data not shown)): 60-80% | conversion into neural cell (IMR90): converted into neural cell | fibroblast-OPC conversion (IMR90; IMR90, same conversion conditions (data not shown)): 60-80% | dermal fibroblasts converted to O4-positive cells with OPC morphology (dermal fibroblasts; 7-day induction): about 80% | staining with additional OPC markers A2B5 and S100β (dermal fibroblasts; O4 positive cells after 7-day induction): positive staining | efficiency of conversion of human fibroblasts into iOPCs (OPC positive cells counted by morphology) [1]: ~80%
